Measured values as given in US8754073B2, “Substituted piperazino-dihydrothienopyrimidines” (Boehringer Ingelheim International GmbH, priority 2007, dated 2014).
Where a name gives a salt, the structure may show the parent alone.

molecular target: PDE4B (Homo sapiens, UniProt Q07343); test: Scintillation Proximity Assay (SPA) of PDE4B enzyme activity ([H3]-cAMP cleavage); type: biochemical; details: test substance 1 μM; one-hour incubation of [H3]-cAMP with PDE4B enzyme at 30° C.
Method in brief: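 SPA read-out: [H3]-cAMP incubated with PDE4B in assay buffer for 1 h at 30 °C, with and without test compound at 1 μM. Reaction stopped by adding yttrium silicate beads that bind the [H3]-AMP product; after 45 min settling, scintillation counted. Value is % inhibition at 1 μM.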

Sequence of PDE4B (Q07343 whole entry, species assumed): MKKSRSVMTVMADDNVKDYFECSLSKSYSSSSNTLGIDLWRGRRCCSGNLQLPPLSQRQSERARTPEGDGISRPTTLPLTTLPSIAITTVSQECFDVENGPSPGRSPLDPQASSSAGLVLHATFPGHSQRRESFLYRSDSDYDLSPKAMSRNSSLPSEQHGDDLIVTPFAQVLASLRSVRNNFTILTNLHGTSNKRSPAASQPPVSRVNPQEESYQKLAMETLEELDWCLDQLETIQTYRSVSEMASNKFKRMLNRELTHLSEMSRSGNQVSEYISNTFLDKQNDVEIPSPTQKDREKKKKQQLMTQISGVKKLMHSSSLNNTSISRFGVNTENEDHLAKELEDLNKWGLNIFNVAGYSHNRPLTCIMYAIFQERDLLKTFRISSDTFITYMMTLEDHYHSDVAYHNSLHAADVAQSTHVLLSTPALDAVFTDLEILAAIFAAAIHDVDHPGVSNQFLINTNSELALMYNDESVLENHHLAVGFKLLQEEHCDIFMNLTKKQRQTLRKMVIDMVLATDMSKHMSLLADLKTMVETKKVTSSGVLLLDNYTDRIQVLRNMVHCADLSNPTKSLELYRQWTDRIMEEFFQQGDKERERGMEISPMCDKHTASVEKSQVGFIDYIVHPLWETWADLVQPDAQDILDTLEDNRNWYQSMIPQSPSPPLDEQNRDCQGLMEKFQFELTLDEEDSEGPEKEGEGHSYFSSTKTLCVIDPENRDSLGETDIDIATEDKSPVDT

inhibition at 1 µM	Compound
94%	[O-][S+]1CCc2nc(N3CCC(c4ccc(Cl)cc4)CC3)nc(NC3CCOCC3)c21 (centres unmarked) [Example 6, {2-[4-(4-chlorophenyl)-piperidin-1-yl]-5-oxo-6,7-dihydro-5H-5λ^4-thieno[3,2-d]pyrimidin-4-yl}-(tetrahydropyran-4-yl)-amine]
94%	CC(C)[C@H](CO)Nc1nc(N2CCC(c3cc(-c4ccco4)n[nH]3)CC2)nc2c1[S+]([O-])CC2 (stereo partly drawn) [Example 161, (R)-2-{2-[4-(5-Furan-2-Yl-2H-Pyrazol-3-Yl)-Piperidin-1-Yl]-5-Oxo-6,7-Dihydro-5H-5λ^4-Thieno[3,2-d]Pyrimidin-4-Ylamino}-3-Methylbutan-1-Ol Trifluoroacetate]
95%	CC(C)[C@H](CO)Nc1nc(N2CCC(c3noc4cc(F)ccc34)CC2)nc2c1[S+]([O-])CC2 (some centres unmarked) [Example 152]
96%	COC(=O)c1cccc(C2CCN(c3nc4c(c(Nc5cccc(F)c5)n3)[S+]([O-])CC4)CC2)c1 (centres unmarked) [Example 135]
96%	[O-][S+]1CCc2nc(N3CCC(c4c[nH]c5ccccc45)CC3)nc(NC3CCOCC3)c21 (centres unmarked) [Example 56]
94%	[O-][S+]1CCc2nc(N3CCC(c4cccc(Br)c4)CC3)nc(NC3(CO)CC3)c21 (centres unmarked) [Example 94]
86%	CC(C)c1noc(C2CCN(c3nc4c(c(N[C@@H](CO)C(C)C)n3)[S+]([O-])CC4)CC2)n1 (some centres unmarked) [Example 160]
94%	[O-][S+]1CCc2nc(N3CCC(c4ccc5ccccc5c4)CC3)nc(Nc3cccc(F)c3)c21 (centres unmarked) [Example 142]
96%	[O-][S+]1CCc2nc(N3CCC(c4c[nH]c5ccccc45)CC3)nc(NC3(CO)CC3)c21 (centres unmarked) [Example 26]
96%	N#CC1(c2ccccc2)CCN(c2nc3c(c(Nc4cccc(F)c4)n2)[S+]([O-])CC3)CC1 (centres unmarked) [Example 85]
95%	N#CC1(c2ccccc2)CCN(c2nc3c(c(NC4CCOCC4)n2)[S+]([O-])CC3)CC1 (centres unmarked) [Example 70]
94%	[O-][S+]1CCc2nc(N3CCC(c4nnc5ccccn45)CC3)nc(Nc3cccc(F)c3)c21 (centres unmarked) [Example 139]
93%	[O-][S+]1CCc2nc(N3CCC(c4cccc(Cl)c4)CC3)nc(NC3CCOCC3)c21 (centres unmarked) [Example 69]
94%	CC(C)c1noc(C2CCN(c3nc4c(c(Nc5cccc(F)c5)n3)[S+]([O-])CC4)CC2)n1 (centres unmarked) [Example 144]
83%	CC(C)[C@H](CO)Nc1nc(N2CCC(c3ccncc3)CC2)nc2c1[S+]([O-])CC2 (stereo partly drawn) [Example 19, (R)-3-Methyl-2-[5-Oxo-2-(3.4.5.6-Tetrahydro-2H-[4,4′]Bipyridinyl-1-Yl)-6,7-Dihydro-5H-5λ^4-Thieno[3,2-d]Pyrimidin-4-Ylamino]-Butan-1-Ol]
96%	[O-][S+]1CCc2nc(N3CCC(c4nc5cc(Cl)ccc5s4)CC3)nc(NC3CCOCC3)c21 (centres unmarked) [Example 118]
92%	CC(C)c1noc(C2CCN(c3nc4c(c(NC5(CO)CC5)n3)[S+]([O-])CC4)CC2)n1 (centres unmarked) [Example 113]
97%	CN1C[C@@H](Nc2nc(N3CCC(c4nc5ccccc5o4)CC3)nc3c2[S+]([O-])CC3)CCC1=O (stereo partly drawn) [Example 100, (S)-5-[2-(4-Benzoxazol-2-Yl-Piperidin-1-Yl)-5-Oxo-6,7-Dihydro-5H-5λ^4-Thieno[3,2-d]Pyrimidin-4-Ylamino]-1-Methylpiperidin-2-One]
96%	[O-][S+]1CCc2nc(N3CCC(c4ccncc4)CC3)nc(Nc3cccc(F)c3)c21 (centres unmarked) [Example 78, (3-Fluorophenyl)-[5-Oxo-2-(3.4.5.6-Tetrahydro-2H-[4,4′]Bipyridinyl-1-Yl)-6,7-Dihydro-5H-5λ^4-Thieno[3,2-d]Pyrimidin-4-Yl]-Amine Trifluoroacetate]
90%	CS(=O)(=O)N1CC2(CCN(c3nc4c(c(NC5CCOCC5)n3)[S+]([O-])CC4)CC2)c2ccccc21 (centres unmarked) [Example 59]
94%	[O-][S+]1CCc2nc(N3CCC(c4nc(-c5cccnc5)no4)CC3)nc(NC3(CO)CC3)c21 (centres unmarked) [Example 115]
92%	[O-][S+]1CCc2nc(N3CCC(c4ccncc4)CC3)nc(NC3CCOCC3)c21 (centres unmarked) [Example 63]
94%	N#Cc1cccc(C2CCN(c3nc4c(c(NC5(CO)CC5)n3)[S+]([O-])CC4)CC2)c1 (centres unmarked) [Example 107]
97%	CN1C[C@@H](Nc2nc(N3CCC(c4cccc(O)c4)CC3)nc3c2[S+]([O-])CC3)CCC1=O (some centres unmarked) [Example 46]

same assay, conditions: test substance 1 μM; one-hour incubation with [H3]-cAMP at 30° C.

inhibition at 1 µM	Compound
93%	CC(C)(NC(=O)c1cccc(C2CCN(c3nc4c(c(NC5CCOCC5)n3)[S+]([O-])CC4)CC2)c1)c1ccncc1 (centres unmarked) [Example 255]
92%	[O-][S+]1CCc2nc(N3CCC(OCc4ccccc4)(c4ccc(Cl)cc4)CC3)nc(NC3(CO)CC3)c21 (centres unmarked) [Example 320]
86%	CC(C)[C@H](CO)Nc1nc(N2CCC(CO)(c3ccc(Cl)cc3)CC2)nc2c1[S+]([O-])CC2 (some centres unmarked) [Example 300]
94%	CN(C(=O)c1ccc(C2CCN(c3nc4c(c(NC5CCOCC5)n3)[S+]([O-])CC4)CC2)cc1)C1CC1 (centres unmarked) [Example 229, N-cyclopropyl-N-methyl-4-{1-[5-oxo-4-(tetrahydropyran-4-ylamino)-6,7-dihydro-5H-5λ^4-thieno[3,2-d]pyrimidin-2-yl]-piperidin-4-yl}-benzamide]
86%	[O-][S+]1CCc2nc(N3CCC(O)(c4ccc(Cl)cc4)CC3)nc(Nc3cccc(F)c3)c21 (centres unmarked) [Example 290]
92%	[O-][S+]1CCc2nc(N3CCC(CO)(c4ccc(Cl)cc4)CC3)nc(NC3(CO)CC3)c21 (centres unmarked) [Example 301]
92%	CN(CC1(c2ccccc2)CCN(c2nc3c(c(NC4(CO)CC4)n2)[S+]([O-])CC3)CC1)S(C)(=O)=O (centres unmarked) [Example 330]
87%	[O-][S+]1CCc2nc(N3CCC(CO)(c4ccc(Cl)cc4)CC3)nc(NC3CCOCC3)c21 (centres unmarked) [Example 281]
83%	[O-][S+]1CCc2nc(N3CCC(c4cc(-c5cccs5)[nH]n4)CC3)nc(NC3CCOCC3)c21 (centres unmarked) [Example 284]
94%	O=C(c1ccc(OC2CCN(c3nc4c(c(NC5CCOCC5)n3)[S+]([O-])CC4)CC2)cc1)N1CCOCC1 (centres unmarked) [Example 240]
95%	CC(C)(NC(=O)c1ccc(OC2CCN(c3nc4c(c(NC5CCOCC5)n3)[S+]([O-])CC4)CC2)cc1)c1ccncc1 (centres unmarked) [Example 236]
96%	Cc1oc(C2CCN(c3nc4c(c(NC5(CO)CC5)n3)[S+]([O-])CC4)CC2)nc1-c1ccccc1 (centres unmarked) [Example 277]
79%	CC(C)C(=O)N1CCc2ccc(OC3CCN(c4nc5c(c(NC6CCOCC6)n4)[S+]([O-])CC5)CC3)cc2CC1 (centres unmarked) [Example 215]
95%	[O-][S+]1CCc2nc(N3CCC(c4nc(-c5ccccc5)c(-c5ccccc5)o4)CC3)nc(NC3CCOCC3)c21 (centres unmarked) [Example 279]
91%	[O-][S+]1CCc2nc(N3CCC(OCc4ccccc4)(c4ccc(Cl)cc4)CC3)nc(NC3CCOCC3)c21 (centres unmarked) [Example 319]
94%	O=C(C1CC1)N1CCc2ccc(OC3CCN(c4nc5c(c(NC6CCOCC6)n4)[S+]([O-])CC5)CC3)cc2CC1 (centres unmarked) [Example 214, cyclopropyl-(7-{1-[5-oxo-4-(tetrahydropyran-4-ylamino)-6,7-dihydro-5H-5λ^4-thieno[3,2-d]pyrimidin-2-yl]-piperidin-4-yloxy}-1,2,4,5-tetrahydrobenzo[d]azepin-3-yl)-methanone]
80%	COCC(=O)NCC1(c2ccccc2)CCN(c2nc3c(c(NC4(CO)CC4)n2)[S+]([O-])CC3)CC1 (centres unmarked) [Example 216]
92%	[O-][S+]1CCc2nc(N3CCC(c4nc(-c5ccccc5)no4)CC3)nc(NC3CCOCC3)c21 (centres unmarked) [Example 312]
95%	CN(C(=O)c1ccc(OC2CCN(c3nc4c(c(NC5CCOCC5)n3)[S+]([O-])CC4)CC2)cc1)C1CCOCC1 (centres unmarked) [Example 237]
95%	COC1(c2ccc(Cl)cc2)CCN(c2nc3c(c(N[C@H]4CCC(=O)N(C)C4)n2)[S+]([O-])CC3)CC1 (some centres unmarked) [Example 261, 5-{2-[4-(4-chlorophenyl)-4-methoxypiperidin-1-yl]-5-oxo-6,7-dihydro-5H-5λ^4-thieno[3,2-d]pyrimidin-4-ylamino}-1-methylpiperidin-2-one]
96%	CN1C[C@@H](Nc2nc(N3CCC(Oc4ccc(C5=NCCO5)cc4)CC3)nc3c2[S+]([O-])CC3)CCC1=O (some centres unmarked) [Example 199]
88%	CN1C[C@@H](Nc2nc(N3CCC(C#N)(c4ccc(F)cc4)CC3)nc3c2[S+]([O-])CC3)CCC1=O (some centres unmarked) [Example 294]
68%	N[C@@H]1CC1Nc1nc(N2CCC(c3ccc(Cl)cc3)CC2)nc2c1[S+]([O-])CC2 (some centres unmarked) [Example 245, N-{2-[4-(4-Chlorophenyl)-Piperidin-1-Yl]-5-Oxo-6,7-Dihydro-5H-5λ^4-Thieno[3,2-d]Pyrimidin-4-Yl}-Cyclopropan-1,2-Diamine]
97%	CN1C[C@@H](Nc2nc(N3CCC(c4nc5ccc(Cl)cc5o4)CC3)nc3c2[S+]([O-])CC3)CCC1=O (some centres unmarked) [Example 194, 5-{2-[4-(6-Chlorbenzoxazol-2-yl)-piperidin-1-yl]-5-oxo-6,7-dihydro-5H-5λ^4-thieno[3,2-d]pyrimidin-4-ylamino}-1-methylpiperidin-2-one]
94%	CC(C)(O)C1(Nc2nc(N3CCC(c4ccc(Cl)cc4)CC3)nc3c2[S+]([O-])CC3)CC1 (centres unmarked) [Example 185, 2-(1-{2-[4-(4-chlorophenyl)-piperidin-1-yl]-5-oxo-6,7-dihydro-5H-5λ^4-thieno[3,2-d]pyrimidin-4-ylamino}-cyclopropyl)-propan-2-ol]
85%	Cn1c(C2CCN(c3nc4c(c(NC5CCOCC5)n3)[S+]([O-])CC4)CC2)nc2cnccc21 (centres unmarked) [Example 210, {2-[4-(1-methyl-1H-imidazo[4,5-c]pyridin-2-yl)-piperidin-1-yl]-5-oxo-6,7-dihydro-5H-5λ^4-thieno[3,2-d]pyrimidin-4-yl}-(tetrahydropyran-4-yl)-amine]
